Biological target: T1, human LXRβ (Homo sapiens, UniProt P55055)
T1 construct: expressed in transfected cells; host or cells: HEK293 cells (ATCC CRL-1573), transient transfection with pFA-hLXRβ/GAL4 and pUAS
T1 sequence (P55055 222-460 limits assumed): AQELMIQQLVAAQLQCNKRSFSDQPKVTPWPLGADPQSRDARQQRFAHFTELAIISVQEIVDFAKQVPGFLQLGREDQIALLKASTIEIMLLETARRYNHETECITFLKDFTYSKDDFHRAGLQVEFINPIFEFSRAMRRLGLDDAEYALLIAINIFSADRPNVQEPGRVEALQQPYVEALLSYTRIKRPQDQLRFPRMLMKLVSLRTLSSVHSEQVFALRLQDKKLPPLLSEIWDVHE
Experiment: Assay for Transcriptional Activity of LXRβ (GAL4-hLXRβ LBD luciferase reporter, transient transfection)
Assay type: cell-based
Conditions: HEK293 cells transfected with pFA-hLXRβ/GAL4 and pUAS, 24 hours; for Emax: fold value in comparison with the control (DMSO-treated group); for EC50: increase of transcriptional activity of LXRβ, average of three independent tests
Outline: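 EC50 values, averaged over three independent runs, come from a four-parameter fit of 9-point half-log curves spanning 0.01–50 μM. Luciferase output was read in lysed HEK293 cells 24 h after dosing at 37 °C, following transient transfection with a GAL4-human LXRβ LBD fusion plus GAL4-responsive reporter.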

Row | SMILES | Emax | EC50
1 | CCOC(=O)c1cncc(-c2ccc(C3CC(C(O)(C(F)(F)F)C(F)(F)F)=NN3c3ccc(F)cc3F)cc2)c1 (stereo not shown) [Example 378] | 30 fold | 744 nM
2 | CSc1ccc(-c2ccc(C3CC(C(O)(C(F)(F)F)C(F)(F)F)=NN3c3ccccc3Cl)cc2)cc1 (stereo not shown) [Example 243, 1-(2-chloro-phenyl)-5-[4′-(methylsulfanyl)-biphenyl-4-yl]-3-[di-(trifluoromethyl)-hydroxy-methyl]-4,5-dihydro-1H-pyrazole] | 112 fold | 617 nM
3 | OC(C1=NN(c2ccc(F)cc2F)C(c2ccc(-c3cncnc3)cc2)C1)(C(F)(F)F)C(F)(F)F (stereo not shown) [Example 372, 1-(2,4-difluoro-phenyl)-5-(4-pyrimidin-5-yl-phenyl)-3-[di-(trifluoromethyl)-hydroxy-methyl]-4,5-dihydro-1H-pyrazole] | 42 fold | 412 nM
4 | N#Cc1cncc(-c2ccc(C3CC(C(O)(C(F)(F)F)C(F)(F)F)=NN3c3ccccc3Cl)cc2)c1 (stereo not shown) [Example 278, 1-(2-chloro-phenyl)-5-[4-(5-cyano-pyridin-3-yl)-phenyl]-3-[di-(trifluoromethyl)-hydroxy-methyl]-4,5-dihydro-1H-pyrazole] | 68 fold | 731 nM
5 | CN(C)C(=O)N1CC=C(c2cccc(C3CC(C(F)(F)C(F)(F)F)=NN3c3ccc(F)cc3F)c2)CC1 (stereo not shown) [Example 64, 1-(2,4-difluoro-phenyl)-5-[3-(1-dimethylcarbamoyl-1,2,3,6-tetrahydropyridin-4-yl)-phenyl]-3-pentafluoroethyl-4,5-dihydro-1H-pyrazole] | 48 fold | 1300 nM
6 | OC(C1=NN(c2ccccc2Cl)C(c2ccc(-c3cnc(Cl)nc3)cc2)C1)(C(F)(F)F)C(F)(F)F (stereo not shown) [Example 281, 1-(2-chloro-phenyl)-5-[4-(2-chloro-pyrimidin-5-yl)-phenyl]-3-[di-(trifluoromethyl)-hydroxy-methyl]-4,5-dihydro-1H-pyrazole] | 66 fold | 1790 nM
7 | COc1ncc(-c2ccc(C3CC(C(O)(C(F)(F)F)C(F)(F)F)=NN3c3ccccc3Cl)cc2)cn1 (stereo not shown) [Example 279, 1-(2-chloro-phenyl)-5-[4-(2-methoxy-pyrimidin-5-yl)-phenyl]-3-[di-(trifluoromethyl)-hydroxy-methyl]-4,5-dihydro-1H-pyrazole] | 67 fold | 931 nM
8 | CS(=O)(=O)c1cncc(-c2cccc(N3N=C(C(F)(F)C(F)(F)F)CC3c3ccc(F)cc3F)c2)c1 (stereo not shown) [Example 207, 5-(2,4-difluoro-phenyl)-1-[3-(5-methanesulfonyl-pyridin-3-yl)-phenyl]-3-pentafluoroethyl-4,5-dihydro-1H-pyrazole] | 16 fold | 6140 nM
9 | CCOc1cccc(-c2ccc(C3CC(C(O)(C(F)(F)F)C(F)(F)F)=NN3c3ccccc3Cl)cc2)c1 (stereo not shown) [Example 251, 1-(2-chloro-phenyl)-5-(3′-ethoxy-biphenyl-4-yl)-3-[di-(trifluoromethyl)-hydroxy-methyl]-4,5-dihydro-1H-pyrazole] | 96 fold | 1950 nM
10 | O=S(=O)(C1CC1)N1CCN(c2ccc(C3CC(C(O)(C(F)(F)F)C(F)(F)F)=NN3c3ccccc3Cl)cc2)CC1 (stereo not shown) [Example 315, 1-(2-chloro-phenyl)-5-[4-(4-cyclopropanesulfonyl-piperazin-1-yl)-phenyl]-3-[di-(trifluoromethyl)-hydroxy-methyl]-4,5-dihydro-1H-pyrazole] | 59 fold | 1490 nM
11 | O=C(CCC1CCCC1)N1CC=C(c2cccc(C3CC(C(O)(C(F)(F)F)C(F)(F)F)=NN3c3ccccc3Cl)c2)CC1 (stereo not shown) [Example 233, 1-(2-chloro-phenyl)-5-{3-[1-(3-cyclopentyl-propionyl)-1,2,3,6-tetrahydropyridin-4-yl]-phenyl}-3-[di-(trifluoromethyl)-hydroxy-methyl]-4,5-dihydro-1H-pyrazole] | 72 fold | 21 nM
12 | CSc1ccc(-c2ccc(C3CC(C(O)(C(F)(F)F)C(F)(F)F)=NN3c3ccccc3Cl)cc2)cn1 (stereo not shown) [Example 266, 1-(2-chloro-phenyl)-5-[4-(6-methylsulfanyl-pyridin-3-yl)-phenyl]-3-[di-(trifluoromethyl)-hydroxy-methyl]-4,5-dihydro-1H-pyrazole] | 80 fold | 1390 nM
13 | CC(C)Oc1ccccc1-c1ccc(C2CC(C(O)(C(F)(F)F)C(F)(F)F)=NN2c2ccccc2Cl)cc1F (stereo not shown) [Example 367, 1-(2-chloro-phenyl)-5-(2-fluoro-2′-isopropoxy-biphenyl-4-yl)-3-[di-(trifluoromethyl)-hydroxy-methyl]-4,5-dihydro-1H-pyrazole] | 59 fold | 312 nM
14 | Cc1cc(-n2cnnn2)ncc1-c1ccc(C2CC(C(O)(C(F)(F)F)C(F)(F)F)=NN2c2ccc(F)cc2F)cc1 (stereo not shown) [Example 394, 1-(2,4-difluoro-phenyl)-5-{4-[4-methyl-6-(tetrazol-1-yl)-pyridin-3-yl]-phenyl}-3-[di-(trifluoromethyl)-hydroxy-methyl]-4,5-dihydro-1H-pyrazole] | 50 fold | 83 nM
15 | CS(=O)(=O)N1CCN(c2ccc(F)c(C3CC(C(F)(F)C(F)(F)F)=NN3c3ccc(F)cc3F)c2)CC1 (stereo not shown) [Example 145, 1-(2,4-difluoro)-5-[2-fluoro-5-(4-methanesulfonyl-piperazin-1-yl)-phenyl]-3-pentafluoroethyl-4,5-dihydro-1H-pyrazole] | 107 fold | 885 nM
16 | O=S(=O)(C1CCCC1)N1CC=C(c2ccc(C3CC(C(O)(C(F)(F)F)C(F)(F)F)=NN3c3ccccc3Cl)cc2)CC1 (stereo not shown) [Example 306, 1-(2-chloro-phenyl)-5-[4-(1-cyclopentanesulfonyl-1,2,3,6-tetrahydropyridin-4-yl)-phenyl]-3-[di-(trifluoromethyl)-hydroxy-methyl]-4,5-dihydro-1H-pyrazole] | 59 fold | 1250 nM
17 | CS(=O)(=O)c1ccc(-c2ccc(C3CC(C(O)(C(F)(F)F)C(F)(F)F)=NN3c3ccccc3Cl)cc2)cn1 (stereo not shown) [Example 335, 1-(2-chloro-phenyl)-5-[4-(6-methanesulfonyl-pyridin-3-yl)-phenyl]-3-[di-(trifluoromethyl)-hydroxy-methyl]-4,5-dihydro-1H-pyrazole] | 94 fold | 136 nM
18 | CS(=O)(=O)c1ccc(-c2cccc(C3CC(C(F)(F)C(F)(F)F)=NN3c3ccc(Cl)cc3F)c2)cc1 (stereo not shown) [Example 53, 1-(4-chloro-2-fluoro-phenyl)-5-(4′-methanesulfonyl-biphenyl-3-yl)-3-pentafluoroethyl-4,5-dihydro-1H-pyrazole] | 61 fold | 746 nM
19 | CCOc1ccc(-c2ccc(C3CC(C(O)(C(F)(F)F)C(F)(F)F)=NN3c3ccccc3Cl)cc2)cn1 (stereo not shown) [Example 269, 1-(2-chloro-phenyl)-5-[4-(6-ethoxy-pyridin-3-yl)-phenyl]-3-[di-(trifluoromethyl)-hydroxy-methyl]-4,5-dihydro-1H-pyrazole] | 44 fold | 7930 nM
20 | O=S(=O)(C1CC1)N1CC=C(c2cncc(C3CC(C(F)(F)C(F)(F)F)=NN3c3ccc(F)cc3F)c2)CC1 (stereo not shown) [Example 168, 1-(2,4-difluoro-phenyl)-5-[3-(1-cyclopropanesulfonyl-1,2,3,6-tetrahydropyridin-4-yl)-pyridin-5-yl]-3-pentafluoroethyl-4,5-dihydro-1H-pyrazole] | 30 fold | 6120 nM

Source: US9376420B2 (YUHAN CORPORATION, priority 2012, dated 2016)
